From PubChem BioAssay (NCI)
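Briefly, cells in 96-well plates were exposed to five compound concentrations for 48 h, and endpoints were estimated by linear interpolation. At the GI50, growth is halved. Definition used: TGI = concentration required for complete inhibition of growth.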

Key:
Assay in all cases: growth of human tumour cells (NCI), 48 h
[1] = system: UO-31 renal
[2] = system: MOLT-4 leukemia
[3] = system: RXF 393 renal
[4] = system: TK-10 renal
[5] = system: PC-3 prostate
[6] = system: HL-60(TB) leukemia
[7] = system: NCI-H522 lung
[8] = system: T-47D breast
[9] = system: HOP-92 NSCLC
[10] = system: A498 renal
[11] = system: ACHN renal
[12] = system: SNB-75 CNS
[13] = system: EKVX NSCLC
[14] = system: HOP-62 NSCLC
[15] = system: MDA-MB-231 breast
[16] = system: RPMI-8226 leukemia
[17] = system: SF-539 CNS
[18] = system: SN12C renal
[19] = system: SK-MEL-5 melanoma
[20] = system: UACC-62 melanoma
[21] = system: OVCAR-5 ovarian
[22] = system: CCRF-CEM leukemia
[23] = system: SF-295 CNS
[24] = system: MDA-MB-435
[25] = system: NCI-H226 lung
[26] = system: DU-145 prostate
[27] = system: SK-OV-3 ovarian
[28] = system: HS 578T breast
[29] = system: UACC-257 melanoma
[30] = system: CAKI-1 renal
[31] = system: MALME-3M melanoma
[32] = system: SK-MEL-28 melanoma
[33] = system: BT-549 breast
[34] = system: SK-MEL-2 melanoma
[35] = system: NCI/ADR-RES ovarian
[36] = system: KM12 colon
[37] = system: SNB-19 CNS
[38] = system: SF-268 CNS
[39] = system: NCI-H460 lung
[40] = system: OVCAR-8 ovarian
[41] = system: HT29 colon
[42] = system: OVCAR-4 ovarian
[43] = system: HCT-15 colon
[44] = system: SW-620 colon
[45] = system: 786-0 renal
[46] = system: COLO 205 colon
[47] = system: MCF7 breast
[48] = system: HCT-116 colon
[49] = system: A549 NSCLC
[50] = system: SR leukemia
[51] = system: U251 CNS
[52] = system: M14 melanoma
[53] = system: LOX IMVI melanoma
[54] = system: NCI-H23 lung
[55] = system: IGROV1 ovarian
[56] = system: HCC-2998 colon
[57] = system: K-562 leukemia

COc1cc(/C=N/n2cnc3oc(-c4ccccc4)cc3c2=N)cc(CN2CCCC2)c1O
GI50 [1]: 1.42 µM | TGI [1]: 3.08 µM | GI50 [2]: 2.18 µM | TGI [2]: 6.49 µM | GI50 [3]: 1.35 µM | TGI [3]: 3.43 µM | GI50 [4]: 26.4 µM | TGI [4]: 49.2 µM | GI50 [5]: 1.5 µM | TGI [5]: 3.13 µM | GI50 [6]: 3.51 µM | TGI [6]: 14.2 µM | GI50 [7]: 2.22 µM | TGI [7]: 5.79 µM | GI50 [8]: 1.96 µM | TGI [8]: 4.69 µM | GI50 [9]: 1.92 µM | TGI [9]: 13 µM | GI50 [10]: 12.9 µM | TGI [10]: 40.2 µM | GI50 [11]: 1.61 µM | TGI [11]: 3.18 µM | GI50 [12]: 0.856 µM | TGI [12]: 2.26 µM | GI50 [13]: 1.83 µM | TGI [13]: 3.77 µM | GI50 [14]: 2.02 µM | TGI [14]: 5.04 µM | GI50 [15]: 1.49 µM | TGI [15]: 2.9 µM | GI50 [16]: 2.08 µM | TGI [16]: 4.82 µM | GI50 [17]: 1.75 µM | TGI [17]: 3.46 µM | GI50 [18]: 1.58 µM | TGI [18]: 3.25 µM | GI50 [19]: 3.49 µM | TGI [19]: 15.9 µM | GI50 [20]: 19.6 µM | TGI [20]: 40.8 µM | GI50 [21]: 1.67 µM | TGI [21]: 3.21 µM | GI50 [22]: 1.96 µM | TGI [22]: 5.75 µM | GI50 [23]: 1.89 µM | TGI [23]: 3.9 µM | GI50 [24]: 1.69 µM | TGI [24]: 3.19 µM | GI50 [25]: 5.84 µM | TGI [25]: 34.1 µM | GI50 [26]: 1.83 µM | TGI [26]: 3.35 µM | GI50 [27]: 18 µM | TGI [27]: 38.5 µM | GI50 [28]: 13.5 µM | TGI [28]: 34 µM | GI50 [29]: 20.5 µM | TGI [29]: 43.8 µM | GI50 [30]: 1.4 µM | TGI [30]: 2.88 µM | GI50 [31]: 1.9 µM | TGI [31]: 3.96 µM | GI50 [32]: 1.82 µM | TGI [32]: 3.56 µM | GI50 [33]: 23.6 µM | TGI [33]: 58.4 µM | GI50 [34]: 21.2 µM | TGI [34]: 47.3 µM | GI50 [35]: 1.96 µM | TGI [35]: 4.04 µM

Oc1ccc(CSc2nnc(-c3cnccn3)n2-c2ccccc2)c2cccnc12
GI50 [1]: 0.458 µM | TGI [1]: 15.3 µM | GI50 [2]: 0.707 µM | TGI [2]: > 100 µM | GI50 [36]: 1.45 µM | TGI [36]: > 100 µM | GI50 [37]: 0.522 µM | TGI [37]: > 100 µM | GI50 [38]: 0.782 µM | TGI [38]: > 100 µM | GI50 [39]: 0.412 µM | TGI [39]: 16.4 µM | GI50 [40]: 0.519 µM | TGI [40]: > 100 µM | GI50 [41]: 3.99 µM | TGI [41]: > 100 µM | GI50 [3]: 2.59 µM | TGI [3]: > 58.2 µM | GI50 [4]: 3.23 µM | TGI [4]: > 100 µM | GI50 [42]: 3.65 µM | TGI [42]: > 100 µM | GI50 [5]: 0.586 µM | TGI [5]: > 100 µM | GI50 [6]: 0.594 µM | TGI [6]: 5.09 µM | GI50 [7]: 0.353 µM | TGI [7]: > 100 µM | GI50 [8]: 1.13 µM | TGI [8]: > 100 µM | GI50 [10]: 2.6 µM | TGI [10]: 10.1 µM | GI50 [43]: 0.408 µM | TGI [43]: > 100 µM | GI50 [44]: 0.624 µM | TGI [44]: > 100 µM | GI50 [45]: 3.7 µM | TGI [45]: 34 µM | GI50 [46]: 11.7 µM | TGI [46]: > 100 µM | GI50 [11]: 0.641 µM | TGI [11]: > 40.9 µM | GI50 [12]: 0.707 µM | TGI [12]: > 62.3 µM | GI50 [47]: 0.334 µM | TGI [47]: > 100 µM | GI50 [48]: 0.37 µM | TGI [48]: > 100 µM | GI50 [13]: 1.87 µM | TGI [13]: > 100 µM | GI50 [14]: 0.729 µM | TGI [14]: 50.8 µM | GI50 [15]: 1.28 µM | TGI [15]: > 86.5 µM | GI50 [16]: 0.46 µM | TGI [16]: > 100 µM | GI50 [17]: 0.919 µM | TGI [17]: > 37.1 µM | GI50 [18]: 0.392 µM | TGI [18]: > 100 µM | GI50 [49]: 1.18 µM | TGI [49]: > 100 µM | GI50 [50]: 0.409 µM | TGI [50]: > 100 µM | GI50 [19]: 0.638 µM | GI50 [20]: 1.18 µM | TGI [20]: 6.73 µM | GI50 [21]: 3.83 µM | TGI [21]: > 100 µM | GI50 [22]: 0.563 µM | TGI [22]: > 100 µM | GI50 [23]: 1 µM | TGI [23]: > 59.6 µM | GI50 [24]: 0.571 µM | TGI [24]: > 100 µM | GI50 [51]: 0.47 µM | TGI [51]: > 100 µM | GI50 [52]: 0.815 µM | GI50 [25]: 3.78 µM | TGI [25]: > 100 µM | GI50 [26]: 0.669 µM | TGI [26]: > 100 µM | GI50 [53]: 0.559 µM | TGI [53]: 13.4 µM | GI50 [27]: 1.28 µM | TGI [27]: 18.2 µM | GI50 [28]: 0.522 µM | TGI [28]: > 100 µM | GI50 [54]: 0.496 µM | TGI [54]: > 61 µM | GI50 [29]: 2.16 µM | TGI [29]: > 28.7 µM | GI50 [55]: 0.923 µM | TGI [55]: > 100 µM | GI50 [56]: 2.9 µM | TGI [56]: > 100 µM | GI50 [30]: 1.98 µM | TGI [30]: > 92.3 µM | GI50 [31]: 2.02 µM | TGI [31]: > 100 µM | GI50 [32]: 2.07 µM | TGI [32]: > 100 µM | GI50 [33]: 0.736 µM | TGI [33]: > 49.6 µM | GI50 [34]: 0.566 µM | GI50 [57]: 0.468 µM | TGI [57]: > 100 µM | GI50 [35]: 0.309 µM | TGI [35]: > 34.8 µM
